Measured values published in ChEMBL document CHEMBL2448809, “UCSF DeRisi Lab MMV Box Apicoplast Screening”.

tested on: Plasmodium falciparum; assay: MMV: Compounds (1uM) were screened in a 72hr growth assay monitored by flow cytometry both in the presence and absence of supplemental isopentenyl pyrophosphate (IPP) 200uM. Compounds which fail to show anti-malarial activity when chemically rescued by IPP are therefore specific to the apicoplast. The values are expressed as the ratio of the corresponding activity with and without IPP, respectively.; format: functional, W2

Row | SMILES | Ratio
1 | COc1cc(-c2nc(-c3ccc(Sc4ccccc4)cc3)c(-c3ccccc3)[nH]2)cc(OC)c1O | 1.071
2 | Cl.OC(CNCc1ccccc1)Cn1c2ccccc2c2ccccc21 (stereo not given) | 0.9403
3 | FC(F)(F)c1cccc(Nc2nc(-c3ccccc3)nc3ncccc23)c1 | 0.7857
4 | CCC(c1ccccc1)c1nn2c(-c3cccs3)nnc2s1 (stereo not given) | 0.775
5 | COc1ccc(CCN2CCC(CN(C)Cc3cnn(-c4ccccc4)c3)CC2)cc1 | 0.8571
6 | CCC1(C)CC(CCNCc2ccccc2O)(c2ccc(C)cc2)CCO1 (stereo not given) | 0.8378
7 | Cc1cc(C=C2SC(=Nc3ccccc3)N(C3CCCC3)C2=O)c(C)n1-c1ccc(Cl)cc1 | 1.038
8 | COc1ccc(C(=O)C(CCC(CNC(C)(C)C)C(=O)c2ccc(OC)cc2)CNC(C)(C)C)cc1 (stereo not given) | 0.9453
9 | COc1ccc(C(=O)Nc2nonc2-c2ccc(OC)c(OC)c2)cc1Cl | 0.8261
10 | CC(O)(c1ccc(Cl)cc1)C(CN1CCCCC1)c1ccccc1.Cl (stereo not given) | 0.9286
11 | COc1ccc2c(c1)C1(Nc3ccccc3-c3nc4ccccc4n31)C(=O)N2 (stereo not given) | 0.9667
12 | Nc1ccc(-c2nc3cc(Cc4ccc5[nH]c(-c6ccc(N)cc6)nc5c4)ccc3[nH]2)cc1 | 1.333
13 | COc1ccc(/C=C2/SC(=Nc3ccccc3)NC2=O)cc1 | 1.136
14 | O=C(NC1CCN(Cc2ccccc2)CC1)c1cc(-c2ccncc2)nc2ccc(Cl)cc12 | 0.7749
15 | CCOC(=O)c1cnc2ccc(Cl)cc2c1NCCCN(C)C | 1.179
16 | CCOc1cc2c(cc1OCC)C(c1cc(C)c(O)c(C)c1)NCC2.Cl (stereo not given) | 1.148
17 | CCN(CC)CCCNc1nc(-c2ccc(Cl)cc2)nc2ccccc12 | 1.055
18 | O=C(NCC1Cc2cccc(-c3ccncc3)c2O1)c1csc2c1CCCC2 (stereo not given) | 0.6487
19 | CCOc1ccc(-n2cc(-c3ccccc3)c3c(SCc4cc(C)ccc4C)ncnc32)cc1 | 0.9394
20 | CCn1nc(-c2ccc(C(=O)OC)cc2)nc2c(=O)n(C)c(=O)nc1-2 | 1.058
21 | CCC(O)c1ccc(Br)cc1NC(=O)c1cccc(Cl)c1 (stereo not given) | 1
22 | CN(C)CCNc1cc(-c2ccccc2)nc2ccccc12 | 1.015
23 | Cc1ccc(Nc2nc(-c3ccccn3)cs2)cc1 | 0.7264
24 | O=C(Nc1ccsc1C(=O)NC1CCCCC1)c1ccc(F)cc1 | 0.9369
25 | CCOC(=O)C1=C(C)N=c2sc(=Cc3ccccc3O)c(=O)n2C1c1ccc(OC)c2ccccc12 (stereo not given) | 1.667
26 | CCOc1c(Cl)cc(CNC(C)C(O)c2ccccc2)cc1OC (stereo not given) | 1.031
27 | O=C(NC(c1ccccc1)c1ccc2cccnc2c1O)c1ccccc1 (stereo not given) | 1.018

Row | SMILES | Ratio
28 | O=C(Nc1ccc(C23CC4CC(CC(c5ccccc5)(C4)C2)C3)cc1)c1cccs1 | 0.9231
29 | CN(C)c1ccc(N2C(N)=NC(N)=NC2(C)C)cc1 | 0.7632
30 | O=C1CC(O)(C(F)(F)C(F)(F)F)Oc2ccccc21 (stereo not given) | 0.8205
31 | Cc1ccc(N2C3c4ccccc4N(S(=O)(=O)c4ccc(C)cc4)C2c2ccccc2N3S(=O)(=O)c2ccc(C)cc2)cc1 | 0.3473
32 | COc1ccc2sc(N(Cc3cccnc3)C(=O)c3ccc(C#N)cc3)nc2c1 | 0.8548
33 | COc1ccc(CNC2CCN(c3ccc(NC(=O)c4cccc(Cl)c4)cc3)CC2)cc1OC | 1.145
34 | c1ccc(-c2ccc(-c3nc4ccccc4[nH]3)cc2)cc1 | 1.5
35 | CCCCCC(=O)N1c2ccccc2N=C2CC(c3ccc(OC)c(OC)c3)CC(O)=C2C1c1ccc(C(F)(F)F)cc1 (stereo not given) | 0.7792
36 | Cc1ccc(N2C(=O)C3C(C2=O)C2(c4ccccc4)C(=O)C3(c3ccccc3)C(c3ccccc3)=C2c2ccccc2)cc1 (stereo not given) | 1.121
37 | O=C(Nc1cccc(C(F)(F)F)c1)c1cc(Cl)ccc1O | 0.9697
38 | COc1ccc(Nc2cc(C)nc(NCc3ccccc3)n2)cc1 | 0.7294
39 | CCN(CC)CCNc1ncnc2c1[nH]c1ccc(Cl)cc12 | 0.6923
40 | CC(=O)c1ccc(NC(=O)CSc2nc(-c3ccccc3Cl)ns2)cc1 | 1.02
41 | CCOC(=O)c1cn(CC)c2cc(N3CCCCC3)c(F)cc2c1=O | 0.6824
42 | Cn1c(=O)c2cc(C(=O)NCCCN3CCCCCC3)sc2c2ccccc21 | 1.205
43 | COCCNC(=O)c1ccc(OC2CCN(Cc3ccc(F)c(F)c3)CC2)c(Cl)c1 | 1.063
44 | COc1ccc(-c2cc(=O)oc3c4c(ccc23)OCN(Cc2ccc(F)cc2)C4)cc1 | 0.9508
45 | CCOc1c(Cl)cc(CNCC(O)c2ccccc2)cc1OC (stereo not given) | 0.8286
46 | COc1ccc(C(=O)NC(c2ccccc2Cl)c2cc(Cl)c3cccnc3c2O)cc1 (stereo not given) | 1.365
47 | CCOc1cc(Cl)c(C(C)NC(=O)c2ccccc2)cc1OCC (stereo not given) | 0.9848
48 | O=C(Nc1ccc(Cl)cc1C(=O)Nc1ccncc1)c1ccc(Cl)cc1Cl | 0.7485
49 | CN1c2ccccc2N(C)C1c1ccc2c(c1)OCO2 | 0.7561
50 | Br.CCn1c2c(c(=N)c3c1CCC3)CCCC2 | 0.8374
51 | CCOc1cc(Cl)c(C(C)NC(=O)c2cccc(OC)c2)cc1OCC (stereo not given) | 0.9259
52 | C=CC12CCN(CC1)C(C(O)c1ccnc3ccc(OC)cc13)C2.Cl (stereo not given) | 0.6933
53 | Cc1ccc(Nc2nc(NCCO)c3ccccc3n2)cc1C | 0.8028
54 | Oc1ccccc1CN1CCC2(CCCN(Cc3ccccc3F)C2)C1 (stereo not given) | 0.9661

Row | SMILES | Ratio
55 | CN1CCN(c2c3c(c(C#N)c4nc5ccccc5n24)CCC3)CC1 | 1.032
56 | CC1CCCCN1CCCNC(=O)c1ccc2c(c1)sc1nc(-c3ccc(F)cc3)cn12 (stereo not given) | 1.167
57 | CC(Oc1ccc(NC(=O)c2cccs2)cc1)C(=O)c1ccc(Cl)cc1 (stereo not given) | 1
58 | CCOC(=O)c1cn(CC)c2cc(N(C)CCc3ccc(OC)c(OC)c3)c(F)cc2c1=O | 0.75
59 | COc1ccc(C2C(C(=O)Nc3cccc(OC)c3)c3ccccc3C(=O)N2C2CCCCC2)cc1 (stereo not given) | 0.7969
60 | CCOC(=O)C1(Cc2ccccc2)CCN(Cc2cccc(OC)c2O)CC1 | 0.7015
61 | CC(C)(C)c1ccc(O)c(CNC2CCCCC2)c1 | 0.8356
62 | CCOc1cccc(C(=O)Nc2ccc(-c3nc4ccccc4[nH]3)cc2)c1 | 1.322
63 | CCOC(=O)c1c(C)n(-c2ccc(Cl)cc2)c2ccc(OC(=O)C=Cc3ccccc3)cc12 | 1.121
64 | CCCCCCc1cc2cc(-c3nc4ccccc4[nH]3)c(=Nc3ccccc3C)oc2cc1O | 0.9685
65 | Cc1ccc(OCCCCCCNCCO)c(C)c1 | 0.8556
66 | Cc1ccc(NC(=O)Nc2cccc(Cl)c2)cc1F | 0.9455
67 | O=C(Nc1ccc(N2CCCCC2)c(Cl)c1)c1ccc(Br)o1 | 0.8784
68 | CC1CCN(Cc2ccc(NC(=O)c3cc4ccc5cccnc5c4[nH]3)cc2)CC1 | 1
69 | C[n+]1c2ccccc2nc2ccc(NCCO)cc21 | 0.9178
70 | COc1cc(SC)ccc1C(=O)N1CCCC(C)C1 (stereo not given) | 0.6888
71 | CC(=O)c1sc(NC(=O)Nc2ccc(C)cc2C)nc1C | 0.843
72 | O=c1nc(C=Cc2ccc(Br)cc2)oc2ccccc12 | 1.133
73 | O=c1nc(C=Cc2ccc(Cl)cc2)oc2ccccc12 | 0.9697
74 | COc1ccccc1N1CCN(C(CNS(=O)(=O)c2ccc(Cl)cc2)c2cccnc2)CC1 (stereo not given) | 0.8506
75 | CCCCCCc1cc(O)c2c3c(c(=O)oc2c1)CCC(C)C3 (stereo not given) | 1.073
76 | Cc1ccc(CSCc2ccc(C(=O)NC3CC3)o2)cc1 | 0.8621
77 | COc1ccc(C2c3ccc4ccccc4c3Oc3ncn(CCCN(C)C)c(=N)c32)cc1 (stereo not given) | 1.078
78 | COc1cccc(C(=O)Nc2ccc(-c3nc4ccccc4[nH]3)cc2)c1 | 0.7651
79 | CCCCOC(=O)c1ccc(Nc2cc(C)nc3ccc(OC)cc23)cc1 | 1.132
80 | N#Cc1nc(Cc2cccc3ccccc23)oc1N1CCN(C(c2ccccc2)c2ccccc2)CC1 | 1.062
81 | CCOc1ccc(N2C(N)=NC(N)=NC2(C)C)cc1.Cl | 0.7815

Row | SMILES | Ratio
82 | CCN1CCN(c2cc(C)c3cc(NC(=O)c4ccc(OC)c(OC)c4)ccc3n2)CC1 | 0.8308
83 | Cc1cc(N2CCCC2)nc(Nc2ccc(NC(=O)CCc3ccccc3)cc2)n1 | 0.9077
84 | COc1ccc(C2N(C)c3ccccc3N2C)cc1 | 0.8737
85 | COc1cccc(C(=O)NC(c2ccc(C)cc2)c2cc(Cl)c3cccnc3c2O)c1 (stereo not given) | 1.1
86 | CCOC(=O)c1cnc2c(C)cccc2c1Nc1ccc(C(C)=O)cc1 | 1.3
87 | COc1ccc(CCn2c(=N)c(C(=O)NCc3cccnc3)cc3c(=O)n4cccc(C)c4nc32)cc1 | 0.875
88 | CCn1c(CN2CCN(Cc3ccccc3)CC2)nc2cc(NC(=O)c3cccs3)ccc21 | 0.8481
89 | Cc1ccc(S(=O)(=O)c2c(COC(=O)c3cccc(C)c3)c(-c3ccccc3)nn2C)cc1 | 0.9265
90 | COc1ccc(-c2nc(N3CCN(C(=O)C4CCCCC4)CC3)c3c4c(sc3n2)CCCC4)cc1 | 1.015
91 | CCOC(=O)C1=C(c2ccccc2)N=c2sc(=Cc3cc(C)n(-c4ccc(F)cc4)c3C)c(=O)n2C1c1cccc(OC)c1OC (stereo not given) | 0.7267
92 | COc1ccc(C(=O)NC(c2ccc(Cl)cc2Cl)c2cc(Cl)c3cccnc3c2O)cc1 (stereo not given) | 0.9814
93 | CCOc1ccc2nc(C)cc(Nc3ccc(N(C)C)cc3)c2c1.Cl | 1.135
94 | CCN(CC)CCNc1ccnc2cc3ccccc3cc12.O=P(O)(O)O | 1.056
95 | O=C(Cc1ccccc1)NC(c1ccc(Cl)cc1)c1c(O)ccc2ccccc12 (stereo not given) | 0.873
96 | O=C(NC1CCN(Cc2ccccc2)CC1)c1cc(-c2cccnc2)nc2ccc(Cl)cc12 | 0.7184
97 | CCc1ccc(Nc2cc(C)nc3nc(C)nn23)cc1 | 0.9802
98 | O=C(NNc1cc(N2CCCC2)nc(N2CCCC2)n1)c1ccccc1 | 0.9508
99 | Cl.N=c1n(CCN2CCCCC2)c2ccccc2n1CC(O)c1cccc(Br)c1 (stereo not given) | 0.8955
100 | CCCCNCC(O)(c1ccc(Cl)cc1)c1ccc(Cl)cc1 | 1.074
101 | Oc1ccc2ccccc2c1CNc1nc2ccccc2[nH]1 | 0.578
102 | C=CCc1c(C)nc2ccccc2c1O | 0.9595
103 | COc1ccc(C(C)=O)cc1N1C(=O)C2C(C1=O)C1(c3ccccc3)C(=O)C2(c2ccccc2)C(c2ccc(C)cc2)=C1c1ccc(C)cc1 (stereo not given) | 0.8421
104 | CSC1=NC(=Nc2c(C)cccc2C)C2(CCC(C(C)(C)C)CC2)N1c1ccc(Cl)cc1 (stereo not given) | 0.8243
105 | COc1cccc(O)c1CN1CCC2(CCCN(Cc3ccc(F)cc3)C2)C1 (stereo not given) | 0.8333
